Measured values taken from a melting point compilation (Tetko et al.; mined from patent text by program, amines drawn as free bases though some values may be those of a salt).

SMILES	melting point [°C]
Cc1cc(Cc2cc(C(C)(C)CC(C)(C)C)cc(-n3nc4ccccc4n3)c2O)c(O)c(C(C)(C)C)c1	148
Cc1[nH]c2cccc(NC(=O)NCc3ccc(Br)cc3)c2c1C	190
COc1ccc2nc(Oc3c(Cl)cc(N)cc3Cl)sc2c1	158 to 160
COc1ccc2c(c1)c(CC(=O)O)c(C)n2C(=O)c1ccc(F)c(F)c1	113 to 115
FC(F)(F)c1snc(-c2c(Cl)cc(Cl)c3nc(C4CC4)oc23)c1Cl	110 to 111
COc1ccc(S(=O)(=O)Nc2c(C)cc(C#N)cc2C(=O)O)cc1	175
CN(C)CCCOc1ccc(N(C(=O)c2ccc(F)cc2)c2ccccc2)cc1	82.5 to 83.5
CCCCN(C)C(=O)CS(=O)CCCCCOc1ccc(C2=C(c3ccccc3)CCCc3ccccc32)cc1 (stereo not drawn)	120 to 121
O=C1c2cc(OC(F)F)ccc2CN1c1ccc2c(c1)CCC2	137 to 139
Nc1ccccc1NS(=O)(=O)c1cc(C(=O)O)cc(NCc2ccco2)c1Oc1ccccc1	105 to 110
Cc1cc(C(=O)NCO)ncc1C(c1c(F)ccc(F)c1F)S(=O)(=O)c1ccc(Cl)cc1 (stereo not drawn)	177 to 178
CCOC(=O)Cn1cc(Cc2nc3c(F)c(F)cc(F)c3s2)c2ccccc21	110 to 111
CCOC(=O)c1c(N2CCN(CCO)CC2)c2cc(Cl)ccc2[nH]c1=O	130 to 134
COc1ccc(N(CCC(O)CO)S(=O)(=O)c2c(F)c(F)c(F)c(F)c2F)cc1 (stereo not drawn)	126 to 128
CC1(C)[C@H](/C=C/Cl)[C@@H]1C(=O)O (relative stereo)	103 to 105
CSc1ncc(C)c(=O)[nH]1	238 to 239
Cn1nnnc1-c1cn(C)c2cc(S(C)=O)ccc2c1=O (stereo not drawn)	237 to 240
CS(=O)(=O)Nc1c(C(=O)c2ccccc2)[nH]c2cc(F)ccc12	166 to 168
CN1CCN(c2ccc3cc(Cl)ccc3n2)CC1	141 to 142
Cc1oc(-c2ccccc2)nc1/C=C/c1ccc(Br)cc1	138 to 139
CC(=O)Oc1ccc2cccc(O)c2n1	240 to 241
NS(=O)(=O)c1cc2c(c(Cl)c1Cl)OC(CCl)C2 (stereo not drawn)	195 to 196
CNC(=O)c1ccc(-c2ccc3oc(C4CCN(C(=O)OC(C)C)CC4)nc3c2)cc1C	151 to 154
COc1ccc(C#CCCCCOc2ccc(C(=O)c3cccc(C(=O)O)c3)cc2CCC(=O)O)cc1	144 to 146
COc1cc(OC)c2[nH]c3c(C(=O)Nc4ccc(CCN(C)Cc5ccc(OC)c(OC)c5)cc4)cccc3c(=O)c2c1	> 260

SMILES	melting point [°C]
CN1CCN(c2ccc(Nc3ncc4c(n3)S/C(=C/c3ccc(C#N)cc3)C(=O)N4)cc2)CC1	274 to 276
CCC(C)CNC(=O)C(CC(O)C(CC(C)C)NC(=O)C(Cc1cscn1)NC(=O)C(Cc1cccc2ccccc12)NC(=O)OC(C)(C)C)C(C)(C)O (mixture of isomers)	90 to 92
CC(Oc1ccccc1C(C)C)C(=O)OC1CC(O)C=C2C=CC(C)C(CCC3CC(O)CC(=O)O3)C21 (mixture of isomers)	138 to 141
Cc1c(Cl)cc(C(=O)O)c(Cl)c1N	218 to 221
CC(=O)OCc1nc2c([N+](=O)[O-])cc(Br)cc2n1C	143 to 145
COc1cc(C(C)=O)ccc1-c1ccccc1F	84 to 85
O=C1c2c(Cl)cccc2-n2cnc(-c3noc(CN4Cc5ccccc5C4)n3)c2[C@@H]2CCN12	218 to 222
C#CCOC(=O)C(C#N)=C(SC)SC	77 to 79
CCC(=O)NCC1CC1c1cccc2nnsc12 (stereo not drawn)	67 to 69
CNc1cc2c(cc1[N+](=O)[O-])OCO2	170
Cc1cccc(Nc2ncnc3cc(NCCCN(C)C)c(N)cc23)c1	60 to 66
CCOC(=O)C1=C(N)NC(N)=C(C(=O)OCC)C1c1ccccc1C	158
O=C(O)CCc1cc(OCCCc2cn(-c3ccc(C(F)(F)F)cn3)nc2OCc2ccccc2)nn1-c1ccccc1	159 to 161
CCCc1c(C(=O)N(C)Cc2ccc3c(Br)c(OCC#N)ccc3c2)cnn1-c1ccccc1	76 to 80
COC(=O)c1cc(-c2cccc([N+](=O)[O-])c2)cc2c1OCC2	53 to 57
CC(C)Cn1nc(-c2ccccc2)cc(COS(C)(=O)=O)c1=O	130
Cc1[nH]c(-c2ccccc2)nc1C(O)C(C)C (stereo not drawn)	214
CN(Cc1cc2c(=O)c(C(=O)NCc3ccc(Cl)cc3)cn(C)c2s1)CC(O)c1ccccc1 (stereo not drawn)	162 to 164
CCOC(=O)C1=C(C)NC(SCc2ccc(OC)cc2)=NC1c1cccc(Cl)c1Cl (stereo not drawn)	134 to 135
COc1ccc(C(O)c2ccccc2OC)cn1 (stereo not drawn)	83 to 84
c1ccc(C2(c3ccccc3)CCNCCO2)cc1	72 to 75
O=C1c2ccccc2C(=O)N1C[C@H]1COc2cc(Cl)ccc2O1	126 to 127
CCc1cnc(N2CCN(C(=O)c3cccc(Nc4ncnc5ccccc45)c3)CC2)nc1	146 to 147
O=C(O)Cc1cc(=O)[nH]c2ccccc12	213 to 215
O=C(O)COc1cccc(Cn2cc(C3c4ccccc4C=Cc4ccccc43)c(=S)[nH]c2=O)c1	148 to 155

SMILES	melting point [°C]
CN1Cc2c(C(=O)O)ncn2-c2cccnc2C1=O	292 to 295
COc1ccc2c(c1)CN(c1ccc3sccc3c1)C2=O	183 to 186
CCCCCCCCCCCNC(=O)NCc1ccccc1	97
CSc1nc2c(OCc3ccccc3)cccc2n1CCCO	106 to 107
O=Cc1ccc(C(=O)Nc2ccc(Cl)cc2)cc1	158
CCC(=O)N(Cc1ccc(OC)cc1)c1cc(F)cc(-c2nnn[nH]2)c1	158 to 160
ON=C1CCOc2ccccc21	114 to 117
C[C@]1(O)CCCC[C@H]1n1cnc(C(=O)N2CCNC[C@H]2Cc2ccccc2)c1-c1ccccc1	191
Cc1cccc(NC(=O)NCC(=O)N(CC(=O)N2CCC3(CC2)OCCO3)c2ccccc2)c1	130
Cc1cc2nc3c(nc2cc1[N+](=O)[O-])SC(=C(C#N)C#N)S3	283 to 284
O=c1ccc(Oc2ccc3c(c2)CCC2(CCNCC2)O3)n[nH]1	233 to 235
CN(C)c1cccc(C(=O)Nc2ccc3ccc(Oc4ccccc4)nc3n2)c1	120
COC1CN(c2ccc(N3C[C@H](CN=[N+]=[N-])OC3=O)cc2F)C1	111 to 112
CCc1nc2c(C)cc(C)nc2n1-c1ccc(CCNC(=O)NS(=O)(=O)c2ccncc2)cc1	228 to 229
OCc1ccn(-c2ccc(OC(F)(F)F)cc2)n1	53 to 54
CC(C)(C)Nc1nc(C#N)c(C#N)nc1N	> 250
CC(=O)N1CCC(C)(C)c2cc(F)cc(CCN3CCN(c4nsc5ccc(F)cc45)CC3)c21	128
CCC(CC)(CC(=O)Nc1cccc(SCc2ccc3cc(F)ccc3n2)c1)C(=O)O	117 to 120
COc1ccc(-c2cc3ccccc3o2)cc1	145 to 147
COC(=O)c1ncc(O)c2c1[nH]c1ccccc12	241 to 242
CC(C)c1cccc2c1CC(C(=O)O)SCC2=O (stereo not drawn)	157 to 158
On1c(C(F)(F)F)nc2c(OCc3ccccc3)cc(Br)cc21	211 to 214
C[C@H](C(=O)N[C@H](CO)Cc1ccccc1)c1ccc(NS(C)(=O)=O)c(F)c1	150 to 153
CC(C)(CO)Nc1nc(Nc2cccc(NS(C)(=O)=O)c2)nc2[nH]cnc12	215 to 218
Cc1c(SCCCSc2nc3ccccc3[nH]2)ccnc1CSc1nc2ccccc2[nH]1	85 to 87

SMILES	melting point [°C]
COc1cc(OCc2ccccn2)ccc1/C=C/c1cc(/C=C/c2c[nH]c3ncccc23)n[nH]1	219 to 223
O=C1C(=NOCCO)Oc2ccccc21	110 to 111
CCOc1c(C)c(N2CCN(c3ccc(C)cc3)CC2)c(C)c2c1OC(C)(C)C2	152 to 155
CC1(C)CC(N(CCCCO)S(C)(=O)=O)c2cc(OCc3ccccc3)ccc2O1 (stereo not drawn)	113 to 115
Cc1noc(C)c1-c1cnc2c(c1)N(Cc1c(F)ccc(F)c1Cl)CCN2	215 to 216
CN(O)C(=O)NCCCCCCCOCc1ccccc1	69 to 70.5
CCCCCCCCCCCCCCC#Cc1cccc(C=O)n1	38.5 to 40
O=C1c2c(Cl)cccc2OCN1CCO[N+](=O)[O-]	98 to 100
CCOC(=O)CC(NC(=O)c1cccc(NC(=O)c2cnc(NC(=N)N)s2)c1)c1ccccc1 (racemic)	149
CCOc1nc2nc(C(OC(C)=O)C3(Br)C(=O)N4C(C(=O)OCc5ccc([N+](=O)[O-])cc5)=CSC43)cn2c2c1CCC2 (stereo not drawn)	119
Cc1c(-c2ccccc2)n(-c2ccccc2Cl)c(-c2ccccc2)cc1=O	228 to 231
COc1ccc(-c2ncc(Cl)nc2-c2ccc(OC)cc2)cc1	126 to 127
O=C1Nc2ccc(C(F)(F)F)cc2C1(O)c1cc(Cl)ccc1O (stereo not drawn)	156 to 158
OC1CSC(Oc2ccc(-c3ccc(C(F)(F)F)cc3)nc2)C(O)C1O (stereo not drawn)	194 to 195
CC(C)(C)c1ccc(S(=O)(=O)N2c3ccccc3C[C@H]2C(=O)NCc2ccc(OCCC(=O)O)cc2)cc1	75
Cc1nc(C)c(C(=O)Nc2ccc(-n3nc(C(F)(F)F)cc3C3CC3)cc2)s1	117 to 122
Brc1c(OCc2ccccc2)cccc1C1OCCCO1	73 to 74
COc1ccc(C2CNCc3c2ccc(OC)c3Cl)cc1OC (stereo not drawn)	130 to 132
O=C(NOCc1ccccc1)c1cc(F)c(Cl)nc1Cl	176 to 177
COc1ccc(C(=O)c2cc3cccc(Br)c3o2)cc1OC	137 to 138
CC(=O)NCCn1ccc2c1-c1ccccc1CC2	95 to 96
CCCOc1cc(CCCOc2nn(Cc3ccccc3)cc2CC(=O)O)n(Cc2ccc(Cl)cc2Cl)n1	132 to 134
O=C(c1ccc2c(c1)CCO2)N1Cc2cccnc2Nc2ccccc21	188
